# From patent US9371570B2, “Mutant calreticulin for the diagnosis of myeloid malignancies” (CeMM—FORSCHUNGSZENTRUM FÜR MOLEKULARE MEDIZIN GmbH, priority 2013, dated 2016)
# System: Ba/F3 cells expressing the empty vector (GFP), CALR wild type (CALR wt-GFP) or CALR mutant (CALR del52-GFP)
# Assay: Sensitivity of Ba/F3 cells to SAR302503 (CellTiter-Glo cell viability)
# Assay type: cell-based, murine
# Conditions: Ba/F3 CALR wild type vs CALR 52 base pair deletion mutant; 48 hours; dilution series, highest concentration 40 μM; 10 ng/ml interleukin-3; listed as JAK2 kinase inhibitor
# Experimental: FIG. 7: The sensitivity of Ba/F3 cells to SAR302503. Ba/F3 cells expressing the empty vector (GFP), CALR wild type (CALR wt-GFP) or CALR mutant (CALR del52-GFP) were analyzed by defining cell viability after 48 hours in presence of […] SAR302503. For relative viability, relative luminescence units were normalized to the DMSO control. Error bars represent standard error of the mean.
# The retrovirus was generated and cells were transduced as described before (Zuber et al, 2013). Briefly, PlatE cells (75% confluent in a 10 cm dish) were transfected with 20 μg of the respective viral vector using the Calcium Phosphate Transfection Kit (Sigma #CAPHOS). The medium was changed after 24 hours and viral supernatant was collected at 36, 40, 44 and 60 hours after transfection. […] The cells were analyzed for transduction efficiency by flow cytometry, 48 hours after the final transduction step. The GFP positive cells were sorted by FACS and the sorting efficiency was analyzed by flow cytometry.
# To define the sensitivity to the inhibitor SAR302503 (Sanofi), Ba/F3 cells were plated in 96-well plates at 25000 cells per well in triplicates on a dilution series of SAR302503 (highest concentration 40 μM) and in presence of 10 ng/ml interleukin-3. After 48 hours cell viability was determined by the CellTiter-Glo® Luminescent Cell Viability Assay (Promega).
smiles,measurement,value
Cc1cnc(Nc2ccc(OCCN3CCCC3)cc2)nc1Nc1cccc(S(=O)(=O)NC(C)(C)C)c1 [SAR302503],sensitivity of cells to the JAK2 kinase inhibitor SAR302503 (relative cell viability),suppressed equally
